Like-named read-outs stand apart in the source and are kept apart here.
Key:
[1] = tested on: N. gonorrhoeae plasmid DNA; details: for Average MOTA Value: 60 min room temperature after DNA spike; for protection of N. gonorrhoeae plasmid DNA from degradation in human urine by endogenous nucleases: sodium citrate at 10, 20, and 40 mM, EDTA at 10, 40, 100 mM (so in the source)
Procedure: Twenty-milliliter volumes of negative pooled urine were prepared with 10, 40, and 100 mM sodium citrate (final concentration); 10, 20, and 40 mM EDTA (final concentration); and without chemical additive. In addition, a 20-ml volume of negative pooled urine was heated for 30 minutes (heated-treated urine). The samples were incubated for 60 minutes at room temperature. After the incubation step, the samples were spiked with N. gonorrhoeae plasmid DNA (2500 DNA copies/ml). The samples were incubated for 60 minutes at room temperature. After the incubation step, two-ml volumes from each sample (eight replicates) were heated for 30 minutes at 114° C. to denature the DNA.
A 1-ml volume of the 8 replicates as described above was added to ferrosoferric oxide. A 100-ul volume of 6 M glycine HCl was added to each sample. The DNA-ferrosoferric oxide complexes were separated on a magnet and washed two times with a 900-ul volume of 1 mM glycine HCl to reduce the ionic strength and remove nonspecifically bound materials. The DNA was released from the ferrosoferric oxide with 480-ul volume of elution buffer (88.3 mM KOH, 177.8 mM bicine, 12.1% (v/v) glycerol, and 11.0% (v/v) DMSO [final concentration]).
Strand Displacement Amplification (SDA) was performed according to the manufacturer's instructions (BDProbeTec™ET Chlamydia trachomatis and N. gonorrhoeae Amplified DNA Assay Package Insert L-000203 [November 1999]). A 150-ul volume of each sample was added into a priming microwell. The priming microwell plate was incubated for 20 minutes at room temperature, after which the plate was incubated at 72.5° C. The amplification microwell plate was incubated at 54° C. After 10 minutes, a 100-ul volume from each priming microwell was added into the corresponding amplification microwell. The amplification microwell plate was place in a BD ProbeTec ET instrument. Data was reported as MOTA value (metric other than acceleration).

[2] = tested on: intact cells of N. gonorrhoeae; assay type: cell-based, N. gonorrhoeae ATCC 19424; details: for Average MOTA Value: urine; for average MOTA values for day 0 versus day 6: 100 mM sodium citrate, sodium fluoride, sodium borate, 5 mM EDTA, urine at 5, 25, 35, and 45° C.
Procedure: (§1) The samples were spiked with cells of N. gonorrhoeae a final concentration 2500 cells/ml. Each sample was incubated for 14 days at room temperature. At specific time points (day 0, 6, and 14), 2.0-ml volumes of each sample (eight replicates) was centrifuged at 2000×g for 30 minutes at room temperature. The supernate was decanted and the cell pellet was resuspended with a 2.0-ml volume of BSA/PBS, and then centrifuged at 2000×g for 30 minutes at room temperature. Again, the supernatant was decanted and the cell pellet was resuspended with a 2.0-ml volume of CT/GC diluent. […] SDA was performed on the cell lysate as described in Example 1.
The samples were spiked with cells of N. gonorrhoeae at a final concentration of 2500 cells/ml. Each sample was incubated for 6 days at 5, 25, 35, and 45° C. At specific time points (day 0 and 6), the samples were processed by centrifugation at 2000×g as described in Example 2. […] SDA was performed on the cell lysates as described in Example 1.

[3] = tested on: intact cells of N. gonorrhoeae; assay type: cell-based, N. gonorrhoeae ATCC 19424; details: for Average MOTA Value: 10 mM potassium EDTA, urine
Procedure: as §1
(§2) i) Potassium EDTA: Seventy-milliliter volumes of pooled negative urine were prepared with 10 mM potassium EDTA (final concentration). The samples were spiked with cells of N. gonorrhoeae at a final concentration of 2000 cells/ml. Each sample was incubated for 14 days at 5, 25, 33, 45, and 60° C. At specific time points (day 0, 6 and 14), the samples were processed by centrifugation at 2000×g as described in Example 3. […] SDA was performed on the cell lysates as described in Example 1.
as §2, with “ii) DNA/RNA Protect™:” for “i) Potassium EDTA:”, “10% (v/v) DNA/RNA Protect™” for “10 mM potassium EDTA”

[4] = tested on: N. gonorrhoeae plasmid DNA; experiment: Stability of N. gonorrhoeae plasmid DNA in urine, 3 days at room temperature (SDA, MOTA value); assay type: biochemical, Neisseria gonorrhoeae
Procedure: The samples were incubated for 3 days at room temperature. […] SDA was performed on the isolated DNA as described in Example 1.

[5] = tested on: intact cells of N. gonorrhoeae; assay type: cell-based, N. gonorrhoeae ATCC 19424; details: urine, room temperature; for average amplification MOTA values at day 0 versus day 6: 100 mM sodium citrate, sodium fluoride, sodium borate, 5 mM EDTA
Procedure: as §1
Forty-milliliter volumes of negative urine was prepared with 100 mM sodium citrate (final concentration); 5, 10, and 15% (v/v) sucrose (final concentration); 5, 10, and 15% (v/v) PVP (final concentration); 5, 10, and 15 mM magnesium chloride (final concentration); 10 and 100 mM sodium fluoride (final concentration); 10 and 100 mM sodium formate (final concentration); 10 and 100 mM sodium borate (final concentration); 0.5 and 5 mM EDTA (final concentration); 0.5 and 5 mM EGTA (final concentration); and without chemical additive. The samples were spiked with cells of N. gonorrhoeae at a final concentration of 2500 cells/ml. Each sample was incubated for 6 days at room temperature. At specific time points (day 0 and 6), the samples were processed by centrifugation at 2000×g as described in Example 2. […] SDA was performed on the cell lysate as described in Example 1.

[6] = tested on: intact cells of N. gonorrhoeae; experiment: Stability of cells of N. gonorrhoeae in urine with sodium citrate, 14 days at room temperature (SDA, MOTA value); assay type: cell-based, N. gonorrhoeae ATCC 19424; details: 100 mM; for Average MOTA Value: urine
Procedure: as §1

## O=C(O)CN(CCN(CC(=O)O)CC(=O)O)CC(=O)O [EDTA, Ethylenediaminetetraacetic acid]
[1]; 10 mM additive in human urine
  Average MOTA Value: 16103
[1]; 20 mM additive in human urine
  Average MOTA Value: 16178
[1]; 40 mM additive in human urine
  Average MOTA Value: 20007
[1]
  protection of N. gonorrhoeae plasmid DNA from degradation in human urine by endogenous nucleases: protected N. gonorrhoeae plasmid DNA from degradation
[2]; 5 mM, 5° C., Day 0
  Average MOTA Value: 50132
[2]; 5 mM, 5° C., Day 6
  Average MOTA Value: 64610
[2]; 5 mM, 25° C., Day 0
  Average MOTA Value: 54871
[2]; 5 mM, 25° C., Day 6
  Average MOTA Value: 66009
[2]; 5 mM, 35° C., Day 0
  Average MOTA Value: 57077
[2]; 5 mM, 35° C., Day 6
  Average MOTA Value: 69291
[2]; 5 mM, 45° C., Day 0
  Average MOTA Value: 62891
[2]; 5 mM, 45° C., Day 6
  Average MOTA Value: 74667
[2]
  average MOTA values for day 0 versus day 6: no significant difference
[3]; 10 mM EDTA, 5, 27, 33, 45, and 60° C.
  time for which stability of intact cells of N. gonorrhoeae in human urine was maintained: ≥ 14 days
[3]; 5° C., Day 0
  Average MOTA Value: 26448
[3]; 5° C., Day 6
  Average MOTA Value: 35234
[3]; 5° C., Day 14
  Average MOTA Value: 36205
[3]; 27° C., Day 0
  Average MOTA Value: 26448
[3]; 27° C., Day 6
  Average MOTA Value: 31619
[3]; 27° C., Day 14
  Average MOTA Value: 36994
[3]; 33° C., Day 0
  Average MOTA Value: 26448
[3]; 33° C., Day 6
  Average MOTA Value: 34252
[3]; 33° C., Day 14
  Average MOTA Value: 38183
[3]; 45° C., Day 0
  Average MOTA Value: 26448
[3]; 45° C., Day 6
  Average MOTA Value: 36132
[3]; 45° C., Day 14
  Average MOTA Value: 41115
[3]; 60° C., Day 0
  Average MOTA Value: 26448
[3]; 60° C., Day 6
  Average MOTA Value: 32218
[3]; 60° C., Day 14
  Average MOTA Value: 26259
[4]; 10 mM, Day 0
  Average MOTA Value: 32177
[4]; 10 mM, Day 3
  Average MOTA Value: 30445
[4]; 20 mM, Day 0
  Average MOTA Value: 34594
[4]; 20 mM, Day 3
  Average MOTA Value: 31366
[5]; 0.5 mM, Day 0
  Average MOTA Value: 35950
[5]; 0.5 mM, Day 6
  Average MOTA Value: 650
[5]; 5 mM, Day 0
  Average MOTA Value: 32392
[5]; 5 mM, Day 6
  Average MOTA Value: 34445
[5]
  average amplification MOTA values at day 0 versus day 6: not significantly different

## O=C(O)CN(CCOCCOCCN(CC(=O)O)CC(=O)O)CC(=O)O [EGTA, Ethylenebis(oxyethylenenitrilo) tetraacetic acid]
[5]; 0.5 mM, Day 0
  Average MOTA Value: 32611
[5]; 0.5 mM, Day 6
  Average MOTA Value: 1150
[5]; 5 mM, Day 0
  Average MOTA Value: 34504
[5]; 5 mM, Day 6
  Average MOTA Value: 6931

## [Cl-].[Cl-].[Mg+2] [MgCl^2, Magnesium chloride]
[5]; 5 mM, Day 0
  Average MOTA Value: 28072
[5]; 5 mM, Day 6
  Average MOTA Value: 1507
[5]; 10 mM, Day 0
  Average MOTA Value: 27157
[5]; 10 mM, Day 6
  Average MOTA Value: 4547
[5]; 15 mM, Day 0
  Average MOTA Value: 35926
[5]; 15 mM, Day 6
  Average MOTA Value: 4868

## O.O.O.O.O.O.O.O.O.O.[Na+].[Na+].[O-]B1OB2OB([O-])OB(O1)O2 [sodium borate, Sodium borate]
[2]
  average MOTA values for day 0 versus day 6: no significant difference
[2]; 100 mM, 5° C., Day 0
  Average MOTA Value: 41940
[2]; 100 mM, 5° C., Day 6
  Average MOTA Value: 40325
[2]; 100 mM, 25° C., Day 0
  Average MOTA Value: 49622
[2]; 100 mM, 25° C., Day 6
  Average MOTA Value: 50745
[2]; 100 mM, 35° C., Day 0
  Average MOTA Value: 60308
[2]; 100 mM, 35° C., Day 6
  Average MOTA Value: 60296
[2]; 100 mM, 45° C., Day 0
  Average MOTA Value: 63343
[2]; 100 mM, 45° C., Day 6
  Average MOTA Value: 62283
[4]; 100 mM, Day 0
  Average MOTA Value: 23263
[4]; 100 mM, Day 3
  Average MOTA Value: 34089
[5]; 10 mM, Day 0
  Average MOTA Value: 26170
[5]; 10 mM, Day 6
  Average MOTA Value: 15464
[5]
  average amplification MOTA values at day 0 versus day 6: not significantly different
[5]; 100 mM, Day 0
  Average MOTA Value: 24607
[5]; 100 mM, Day 6
  Average MOTA Value: 28908

## O=C([O-])CC(O)(CC(=O)[O-])C(=O)[O-].[Na+].[Na+].[Na+] [sodium citrate, Sodium citrate, trisodium salt]
[1]; 10 mM additive in human urine
  Average MOTA Value: 6673
[1]; 40 mM additive in human urine
  Average MOTA Value: 36684
[1]; 100 mM additive in human urine
  Average MOTA Value: 24069
[1]
  protection of N. gonorrhoeae plasmid DNA from degradation in human urine by endogenous nucleases: protected N. gonorrhoeae plasmid DNA from degradation
[2]
  average MOTA values for day 0 versus day 6: no significant difference
[2]; 100 mM, 5° C., Day 0
  Average MOTA Value: 56773
[2]; 100 mM, 5° C., Day 6
  Average MOTA Value: 57701
[2]; 100 mM, 25° C., Day 0
  Average MOTA Value: 59703
[2]; 100 mM, 25° C., Day 6
  Average MOTA Value: 51791
[2]; 100 mM, 35° C., Day 0
  Average MOTA Value: 54238
[2]; 100 mM, 35° C., Day 6
  Average MOTA Value: 51468
[2]; 100 mM, 45° C., Day 0
  Average MOTA Value: 59944
[2]; 100 mM, 45° C., Day 6
  Average MOTA Value: 63623
[4]; 100 mM, Day 0
  Average MOTA Value: 26852
[4]; 100 mM, Day 3
  Average MOTA Value: 30978
[6]
  time for which stability of intact cells of N. gonorrhoeae in human urine was maintained: ≥ 14 days
[6]; Day 0
  Average MOTA Value: 30200
[6]; Day 6
  Average MOTA Value: 25391
[6]; Day 10
  Average MOTA Value: 27522
[6]; Day 14
  Average MOTA Value: 20953
[5]
  average amplification MOTA values at day 0 versus day 6: not significantly different
[5]; 100 mM, Day 0
  Average MOTA Value: 27310
[5]; 100 mM, Day 6
  Average MOTA Value: 26394

## [F-].[Na+] [sodium fluoride, Sodium fluoride]
[2]
  average MOTA values for day 0 versus day 6: no significant difference
[2]; 100 mM, 5° C., Day 0
  Average MOTA Value: 43807
[2]; 100 mM, 5° C., Day 6
  Average MOTA Value: 59543
[2]; 100 mM, 25° C., Day 0
  Average MOTA Value: 44945
[2]; 100 mM, 25° C., Day 6
  Average MOTA Value: 47391
[2]; 100 mM, 35° C., Day 0
  Average MOTA Value: 41608
[2]; 100 mM, 35° C., Day 6
  Average MOTA Value: 47347
[2]; 100 mM, 45° C., Day 0
  Average MOTA Value: 45741
[2]; 100 mM, 45° C., Day 6
  Average MOTA Value: 48043
[4]; 100 mM, Day 0
  Average MOTA Value: 27811
[4]; 100 mM, Day 3
  Average MOTA Value: 42689
[5]; 10 mM, Day 0
  Average MOTA Value: 32162
[5]; 10 mM, Day 6
  Average MOTA Value: 10894
[5]
  average amplification MOTA values at day 0 versus day 6: not significantly different
[5]; 100 mM, Day 0
  Average MOTA Value: 26385
[5]; 100 mM, Day 6
  Average MOTA Value: 24559

## O=C[O-].[Na+] [sodium formate, Sodium formate]
[5]; 10 mM, Day 0
  Average MOTA Value: 34446
[5]; 10 mM, Day 6
  Average MOTA Value: 2211
[5]; 100 mM, Day 0
  Average MOTA Value: 29357
[5]; 100 mM, Day 6
  Average MOTA Value: 2139

## OC[C@H]1O[C@@](CO)(O[C@H]2O[C@H](CO)[C@@H](O)[C@H](O)[C@H]2O)[C@@H](O)[C@@H]1O [sucrose, Sucrose]
[5]; 5% (v/v), Day 0
  Average MOTA Value: 28427
[5]; 5% (v/v), Day 6
  Average MOTA Value: 501
[5]; 10% (v/v), Day 0
  Average MOTA Value: 29548
[5]; 10% (v/v), Day 6
  Average MOTA Value: 5555
[5]; 15% (v/v), Day 0
  Average MOTA Value: 27391
[5]; 15% (v/v), Day 6
  Average MOTA Value: 8497

Source: patent US7029840B2 (priority 2000, dated 2006)
